Legend:
[1] = tested on: DIGSA; assay: Pre-emergence action at 320 g/ha against DIGSA; assay type: in vivo, Digitaria sanguinalis; details: visual scoring after about 3 weeks vs untreated controls
How it was run: (§1)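 Sow seeds, cover with soil, spray soil surface (WP/EC, 0.5% additive, 600 l/ha water), hold in greenhouse ~3 wk, then rate % activity visually against untreated controls.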

[2] = tested on: MATIN; assay: Pre-emergence action at 320 g/ha against MATIN; assay type: in vivo, Tripleurospermum inodorum (Matricaria inodora); details: visual scoring after about 3 weeks vs untreated controls
How it was run: as §1

[3] = tested on: ECHCG; assay: Post-emergence action at 320 g/ha against ECHCG; assay type: in vivo, Echinochloa crus-galli; details: dosage 320 g/ha, visual rating about 3 weeks after treatment vs untreated controls (100% = plants died)
Text: (§2) Accordingly, the compounds of the invention have good herbicidal action against a broad spectrum of weed grasses and broad-leaved weeds and are therefore suitable for controlling unwanted vegetation by the post-emergence method. • b) Seeds of monocotyledonous and dicotyledonous weeds and crop plants are placed in sandy loam in plastic or organic planting pots, covered with soil and cultivated in a greenhouse under controlled growth conditions. 2 to 3 weeks after sowing, the test plants are treated at the one-leaf stage. The compounds of the invention, formulated in the form of wettable powders (WP) or as emulsion concentrates (EC), are then sprayed onto the green parts of the plants as aqueous suspension or emulsion with addition of 0.5% additive at a water application rate of 600 l/ha (converted). After the test plants have been kept in the greenhouse under optimum growth conditions for about 3 weeks, the activity of the preparations is rated visually in comparison to untreated controls. For example, 100% activity=the plants have died, 0% activity=like control plants. Tables 39 to 49 below show the effects of selected compounds of the general formula (I) according to Tables 1 and 2 on various harmful plants and at an application rate corresponding to 320 g/ha, which were obtained by the experimental procedure mentioned above.

[4] = tested on: ALOMY; assay: Post-emergence action against ALOMY, 320 g/ha; assay type: in vivo, Alopecurus myosuroides; details: dosage 320 g/ha, visual rating about 3 weeks after treatment vs untreated controls (100% = plants died)
How it was run: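 Weeds were sown in sandy loam, grown in a greenhouse and sprayed at the one-leaf stage, 2 to 3 weeks after sowing, with WP or EC formulations as aqueous suspension or emulsion plus 0.5% additive at 600 l/ha water. Activity was rated visually after about 3 weeks against untreated controls (100% = plants dead, 0% = like control).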

[5] = tested on: ECHGC; assay: Pre-emergence action at 320 g/ha against ECHGC; assay type: in vivo, Echinochloa crus-galli; details: visual scoring after about 3 weeks vs untreated controls
How it was run: as §1

[6] = tested on: AMARE; assay: Pre-emergence action at 320 g/ha against AMARE; assay type: in vivo, Amaranthus retroflexus; details: visual scoring after about 3 weeks vs untreated controls
How it was run: as §1

[7] = tested on: POLCO; assay: Post-emergence action at 320 g/ha against POLCO; assay type: in vivo, Fallopia convolvulus (Polygonum convolvulus); details: visual rating about 3 weeks after treatment vs untreated controls
Text: as §2

[8] = tested on: DIGSA; assay: Post-emergence action at 320 g/ha against DIGSA; assay type: in vivo, Digitaria sanguinalis; details: dosage 320 g/ha, visual rating about 3 weeks after treatment vs untreated controls (100% = plants died)
Text: as §2

[9] = tested on: SETVI; assay: Post-emergence action at 320 g/ha against SETVI; assay type: in vivo, Setaria viridis; details: visual rating about 3 weeks after treatment vs untreated controls
Text: as §2

[10] = tested on: PHBPU; assay: Post-emergence action at 320 g/ha against PHBPU; assay type: in vivo; details: visual rating about 3 weeks after treatment vs untreated controls
Text: as §2

[11] = tested on: AMARE; assay: Post-emergence action at 320 g/ha against AMARE; assay type: in vivo, Amaranthus retroflexus; details: visual rating about 3 weeks after treatment vs untreated controls
Text: as §2

[12] = tested on: ABUTH; assay: Post-emergence action at 320 g/ha against ABUTH; assay type: in vivo, Abutilon theophrasti; details: visual rating about 3 weeks after treatment vs untreated controls
Text: as §2

[13] = tested on: LOLRI; assay: Pre-emergence action at 320 g/ha against LOLRI; assay type: in vivo, Lolium rigidum; details: visual scoring after about 3 weeks vs untreated controls
How it was run: as §1

[14] = tested on: AVEFA; assay: Pre-emergence action at 320 g/ha against AVEFA; assay type: in vivo; details: visual scoring after about 3 weeks vs untreated controls
How it was run: as §1

[15] = tested on: PHBPU; assay: Pre-emergence action at 320 g/ha against PHBPU; assay type: in vivo; details: visual scoring after about 3 weeks vs untreated controls
Text: b) Seeds of monocotyledonous and dicotyledonous weed plants and crop plants are placed in plastic or organic planting pots and covered with soil. The compounds of the invention, formulated in the form of wettable powders (WP) or as emulsion concentrates (EC), are then applied onto the surface of the covering soil as aqueous suspension or emulsion with addition of 0.5% additive at a water application rate of 600 l/ha (converted). After the treatment, the pots are placed in a greenhouse and kept under good growth conditions for the trial plants. After about 3 weeks, the effect of the preparations is scored visually in comparison with untreated controls as percentages. For example, 100% activity=the plants have died, 0% activity=like control plants. Tables 13 to 26 below show the effects of selected compounds of the general formula (I) on various harmful plants and at an application rate corresponding to 320 g/ha, which were obtained by the experimental procedure mentioned above.

[16] = tested on: POLCO; assay: Pre-emergence action at 320 g/ha against POLCO; assay type: in vivo, Fallopia convolvulus (Polygonum convolvulus); details: visual scoring after about 3 weeks vs untreated controls
How it was run: as §1

[17] = tested on: AVEFA; assay: Post-emergence action at 320 g/ha against AVEFA; assay type: in vivo; details: visual rating about 3 weeks after treatment vs untreated controls
Text: as §2

[18] = tested on: VIOTR; assay: Pre-emergence action at 320 g/ha against VIOTR; assay type: in vivo, Viola tricolor; details: dosage 320 g/ha
How it was run: as §1

[19] = tested on: ALOMY; assay: Pre-emergence action at 320 g/ha against ALOMY; assay type: in vivo, Alopecurus myosuroides; details: scored visually after about 3 weeks vs untreated controls (100% = plants have died)
How it was run: as §1

[20] = tested on: SETVI; assay: Pre-emergence action at 320 g/ha against SETVI; assay type: in vivo, Setaria viridis; details: visual scoring after about 3 weeks vs untreated controls
How it was run: as §1

[21] = tested on: VIOTR; assay: Post-emergence action at 320 g/ha against VIOTR; assay type: in vivo, Viola tricolor; details: visual rating about 3 weeks after treatment vs untreated controls
Text: as §2

[22] = tested on: VERPE; assay: Pre-emergence action at 320 g/ha against VERPE; assay type: in vivo, Veronica persica; details: visual scoring after about 3 weeks vs untreated controls
How it was run: as §1

COC(=O)COc1nn(-c2ccccc2F)c(-c2ccc(F)nc2)c1Br [VII-001]
Pre-emergence action against DIGSA in % [1]: 100% | Pre-emergence action against MATIN in % [2]: 90% | Post-emergence action at 320 g/ha against ECHCG in % [3]: 100% | Post-emergence action against ALOMY [4]: 90% | Pre-emergence action against ECHGC in % [5]: 100% | Pre-emergence action against AMARE in % [6]: 100% | Post-emergence action against POLCO in % [7]: 80% | Post-emergence action at 320 g/ha against DIGSA in % [8]: 90% | Post-emergence action against SETVI in % [9]: 90% | Post-emergence action against PHBPU in % [10]: 90% | Post-emergence action against AMARE in % [11]: 90% | Post-emergence action against ABUTH in % [12]: 80% | Pre-emergence action against LOLRI in % [13]: 100% | Pre-emergence action against AVEFA in % [14]: 90% | Pre-emergence action against PHBPU in % [15]: 100% | Pre-emergence action against POLCO in % [16]: 90% | Post-emergence action against AVEFA in % [17]: 90% | Pre-emergence action against VIOTR in % [18]: 100% | Pre-emergence action at 320 g/ha against ALOMY in % [19]: 100% | Pre-emergence action against SETVI in % [20]: 100% | Post-emergence action against VIOTR in % [21]: 80% | Pre-emergence action against VERPE in % [22]: 100%
